The results in this text go back to patent US9725445B2, “Cycloalkyl nitrile pyrazolo pyridones as Janus kinase inhibitors” (Merck Sharp & Dohme Corp., priority 2013, dated 2017).

One assay has as its target JAK1 (Homo sapiens (Human), UniProt P23458). The assay can be described thus: Jak biochemical HTRF assay, JAK1. The settings on record: HTRF biochemical assay, recombinant GST-tagged catalytic domain; read-out: JAK1 IC50. Background: TR-FRET usually uses a lanthanide donor and a delayed reading to cut background.
Another assay concerns the target JAK2 (Homo sapiens (Human), UniProt O60674). Kind of assay: Jak biochemical HTRF assay, JAK2. The settings on record: HTRF biochemical assay, recombinant GST-tagged catalytic domain; read-out: JAK2 IC50.

Sequence of JAK2 (O60674 849-1124): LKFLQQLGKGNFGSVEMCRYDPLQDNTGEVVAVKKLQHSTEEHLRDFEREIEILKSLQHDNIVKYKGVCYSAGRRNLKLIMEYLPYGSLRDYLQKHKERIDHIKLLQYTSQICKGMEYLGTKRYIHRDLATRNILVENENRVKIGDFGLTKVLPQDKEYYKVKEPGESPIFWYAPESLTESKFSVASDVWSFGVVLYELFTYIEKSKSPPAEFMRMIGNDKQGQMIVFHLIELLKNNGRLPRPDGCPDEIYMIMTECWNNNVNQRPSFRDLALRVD
Sequence of JAK1 (P23458 875-1153): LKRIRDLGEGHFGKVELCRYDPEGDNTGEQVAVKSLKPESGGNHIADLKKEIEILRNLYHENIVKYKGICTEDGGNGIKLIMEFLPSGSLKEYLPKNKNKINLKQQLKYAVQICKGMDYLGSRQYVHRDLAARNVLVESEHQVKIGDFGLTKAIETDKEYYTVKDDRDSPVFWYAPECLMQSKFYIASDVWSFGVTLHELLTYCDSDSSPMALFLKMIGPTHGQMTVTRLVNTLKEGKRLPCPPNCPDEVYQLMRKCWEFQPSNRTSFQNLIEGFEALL

As to `N#C[C@H]1CCCC[C@@H]1n1nc(Nc2ccc3c(c2)CN(C2CCCC2)C3=O)c2c(=O)[nH]ccc21` [Example 3-154, (1S,2S)-2-{3-[(2-cyclopentyl-1-oxo-2,3-dihydro-1H-isoindol-5-yl)amino]-4-oxo-4,5-dihydro-1H-pyrazolo[4,3-c]pyridin-1-yl}cyclohexanecarbonitrile], the results for the half-maximal inhibitory concentration (IC50) on JAK1 and on JAK2 were 0.056 nM and 0.45 nM, respectively.
In the same order, the values of `CC(C)(C)OC(=O)CC(C)(C)N1Cc2cc(Nc3nn([C@H]4CCCC[C@@H]4C#N)c4cc[nH]c(=O)c34)ccc2S1(=O)=O` [Example 3-155, tert-butyl 3-[5-({1-[(1S,2S)-2-cyanocyclohexyl]-4-oxo-4,5-dihydro-1H-pyrazolo[4,3-c]pyridin-3-yl}amino)-1,1-dioxido-1,2-benzisothiazol-2(3H)-yl]-3-methylbutanoate] are 0.12 nM and 0.71 nM.
Consider `N#C[C@H]1CCCC[C@@H]1n1nc(Nc2ccc3c(c2)CNCC3)c2c(=O)[nH]ccc21` [Example 3-157, (1S,2S)-2-[4-oxo-3-(1,2,3,4-tetrahydroisoquinolin-7-ylamino)-4,5-dihydro-1H-pyrazolo[4,3-c]pyridin-1-yl]cyclohexanecarbonitrile], for which the 50% inhibitory concentration (IC50) at JAK1 came to 0.45 nM; on JAK2, 0.88 nM.
Turning to `N#C[C@H]1CCCC[C@@H]1n1nc(Nc2ccc3c(c2)CN(C(=O)c2cnc(N4CCCCC4)cn2)C3)c2c(=O)[nH]ccc21` [Example 3-158, (1S,2S)-2-[4-oxo-3-({2-[(5-piperidin-1-ylpyrazin-2-yl)carbonyl]-2,3-dihydro-1H-isoindol-5-yl}amino)-4,5-dihydro-1H-pyrazolo[4,3-c]pyridin-1-yl]cyclohexanecarbonitrile], the IC50 was 0.98 nM at JAK1 and 1.5 nM at JAK2.
Consider `COCC(C)(C)CN1Cc2cc(Nc3nn([C@H]4CCCC[C@@H]4C#N)c4cc[nH]c(=O)c34)ccc2S1(=O)=O` [Example 3-159, (1S,2S)-2-(3-((2-(3-methoxy-2,2-dimethylpropyl)-1,1-dioxido-2,3-dihydrobenzo[d]isothiazol-5-yl)amino)-4-oxo-4,5-dihydro-1H-pyrazolo[4,3-c]pyridin-1-yl)cyclohexanecarbonitrile], for which the values for the 50% inhibitory concentration (IC50) at JAK1 and on JAK2 were 0.059 nM and 0.44 nM, respectively.
Regarding `COCC(C)(C)N1Cc2cc(Nc3nn([C@H]4CCCC[C@@H]4C#N)c4cc[nH]c(=O)c34)ccc2S1(=O)=O` [Example 3-160, (1S,2S)-2-(3-{[2-(2-methoxy-1,1-dimethylethyl)-1,1-dioxido-2,3-dihydro-1,2-benzisothiazol-5-yl]amino}-4-oxo-4,5-dihydro-1H-pyrazolo[4,3-c]pyridin-1-yl)cyclohexanecarbonitrile], the concentration for half-maximal inhibition (IC50) amounted to 0.049 nM at JAK1 and 0.19 nM at JAK2.
For `COCCC(C)(C)N1Cc2cc(Nc3nn([C@H]4CCCC[C@@H]4C#N)c4cc[nH]c(=O)c34)ccc2S1(=O)=O` [Example 3-161, (1S,2S)-2-(3-{[2-(3-methoxy-1,1-dimethylpropyl)-1,1-dioxido-2,3-dihydro-1,2-benzisothiazol-5-yl]amino}-4-oxo-4,5-dihydro-1H-pyrazolo[4,3-c]pyridin-1-yl)cyclohexanecarbonitrile], in that order: 0.067 nM and 0.15 nM.
As to `N#C[C@H]1CCCC[C@@H]1n1nc(Nc2ccc3c(c2)CN(CC2CCCC2)C3)c2c(=O)[nH]ccc21` [Example 3-162, (1S,2S)-2-(3-{[2-(cyclopentylmethyl)-2,3-dihydro-1H-isoindol-5-yl]amino}-4-oxo-4,5-dihydro-1H-pyrazolo[4,3-c]pyridin-1-yl)cyclohexanecarbonitrile], the IC50 on JAK1 amounted to 0.33 nM; on JAK2, 0.92 nM.
For the compound `CC(C)(C)OC(=O)CN1Cc2ccc(Nc3nn([C@H]4CCCC[C@@H]4C#N)c4cc[nH]c(=O)c34)cc2C1` [Example 3-164, tert-butyl [5-({1-[(1S,2S)-2-cyanocyclohexyl]-4-oxo-4,5-dihydro-1H-pyrazolo[4,3-c]pyridin-3-yl}amino)-1,3-dihydro-2H-isoindol-2-yl]acetate], the figures for the IC50 at JAK1 and at JAK2 were 0.33 nM and 2.5 nM, respectively.
For `CC1(C)C(=O)c2cc(Nc3nn([C@H]4CCCC[C@@H]4C#N)c4cc[nH]c(=O)c34)ccc2S1(=O)=O` [Example 3-171, (1S,2S)-2-{3-[(2,2-dimethyl-1,1-dioxido-3-oxo-2,3-dihydro-1-benzothiophen-5-yl)amino]-4-oxo-4,5-dihydro-1H-pyrazolo[4,3-c]pyridin-1-yl}cyclohexanecarbonitrile], the 50% inhibitory concentration (IC50) on JAK1 was determined as 1.16 nM; on JAK2, 5.5 nM.
Consider `CN(C)[C@@H]1CC[C@H](n2nc(Nc3ccc(Cl)c(F)c3)c3c(=O)[nH]ccc32)[C@@H](C#N)C1` [Example 5-1, (1S,2S,5R)-2-(3-((4-Chloro-3-fluorophenyl)amino)-4-oxo-4,5-dihydro-1H-pyrazolo[4,3-c]pyridin-1-yl)-5-(dimethylamino)cyclohexanecarbonitrile], for which the IC50 on JAK1 came to 1.5 nM; on JAK2, 19 nM.
For `CN(C)[C@H]1CC[C@H](n2nc(Nc3ccc(Cl)c(F)c3)c3c(=O)[nH]ccc32)[C@@H](C#N)C1` [Example 5-2, (1S,2S,5S)-2-(3-((4-Chloro-3-fluorophenyl)amino)-4-oxo-4,5-dihydro-1H-pyrazolo[4,3-c]pyridin-1-yl)-5-(dimethylamino)cyclohexanecarbonitrile], in that order: 0.6 nM and 14 nM.
For `N#C[C@H]1C[C@H](N2CCC2)CC[C@@H]1n1nc(Nc2ccc(Cl)c(F)c2)c2c(=O)[nH]ccc21` [Example 5-3, (1S,2S,5R)-5-(azetidin-1-yl)-2-(3-((4-chloro-3-fluorophenyl)amino)-4-oxo-4,5-dihydro-1H-pyrazolo[4,3-c]pyridin-1-yl)cyclohexanecarbonitrile], the IC50 on JAK1 turned out to be 1.7 nM; at JAK2, 40 nM.
Consider `N#C[C@H]1C[C@@H](N2CCC2)CC[C@@H]1n1nc(Nc2ccc(Cl)c(F)c2)c2c(=O)[nH]ccc21` [Example 5-4, (1S,2S,5S)-5-(azetidin-1-yl)-2-(3-((4-chloro-3-fluorophenyl)amino)-4-oxo-4,5-dihydro-1H-pyrazolo[4,3-c]pyridin-1-yl)cyclohexanecarbonitrile], for which the IC50 was 1.7 nM at JAK1 and 31 nM at JAK2.
On to `N#C[C@H]1C[C@H](N2CCC2)CC[C@@H]1n1nc(Nc2ccc(C(F)(F)F)cc2)c2c(=O)[nH]ccc21` [Example 5-7, (1S,2S,5R)-5-(azetidin-1-yl)-2-(4-oxo-3-((4-(trifluoromethyl)phenyl)amino)-4,5-dihydro-1H-pyrazolo[4,3-c]pyridin-1-yl)cyclohexanecarbonitrile], for which the IC50 on JAK1 turned out to be 1.4 nM; at JAK2, 60 nM.
`N#C[C@H]1C[C@@H](N2CCC2)CC[C@@H]1n1nc(Nc2ccc(C(F)(F)F)cc2)c2c(=O)[nH]ccc21` [Example 5-8, (1S,2S,5S)-5-(azetidin-1-yl)-2-(4-oxo-3-((4-(trifluoromethyl)phenyl)amino)-4,5-dihydro-1H-pyrazolo[4,3-c]pyridin-1-yl)cyclohexanecarbonitrile]: the IC50 on JAK1 worked out at 0.88 nM; on JAK2, 22 nM.
On to `N#C[C@@H]1C[C@@H](N2CCC2)CC[C@H]1n1nc(Nc2ccc(C(F)(F)F)cc2)c2c(=O)[nH]ccc21` [Example 5-9, (1R,2R,5S)-5-(azetidin-1-yl)-2-(4-oxo-3-((4-(trifluoromethyl)phenyl)amino)-4,5-dihydro-1H-pyrazolo[4,3-c]pyridin-1-yl)cyclohexanecarbonitrile], for which the IC50 was found to be 25 nM at JAK1 and 660 nM on JAK2.
Take `N#C[C@@H]1C[C@H](N2CCC2)CC[C@H]1n1nc(Nc2ccc(C(F)(F)F)cc2)c2c(=O)[nH]ccc21` [Example 5-10, (1R,2R,5R)-5-(azetidin-1-yl)-2-(4-oxo-3-((4-(trifluoromethyl)phenyl)amino)-4,5-dihydro-1H-pyrazolo[4,3-c]pyridin-1-yl)cyclohexanecarbonitrile]: the IC50 at JAK1 turned out to be 37 nM; at JAK2, 940 nM.
Regarding `CN(C)[C@@H]1CC[C@H](n2nc(Nc3ccc(Cl)cc3)c3c(=O)[nH]ccc32)[C@@H](C#N)C1` [Example 5-15, (1S,2S,5R)-2-(3-((4-chlorophenyl)amino)-4-oxo-4,5-dihydro-1H-pyrazolo[4,3-c]pyridin-1-yl)-5-(dimethylamino)cyclohexanecarbonitrile], the concentration for half-maximal inhibition (IC50) at JAK1 was found to be 0.28 nM; on JAK2, 11 nM.
For `CN(C)[C@H]1CC[C@H](n2nc(Nc3ccc(Cl)cc3)c3c(=O)[nH]ccc32)[C@@H](C#N)C1` [Example 5-16, (1S,2S,5S)-2-(3-((4-chlorophenyl)amino)-4-oxo-4,5-dihydro-1H-pyrazolo[4,3-c]pyridin-1-yl)-5-(dimethylamino)cyclohexanecarbonitrile], the IC50 on JAK1 was 0.34 nM; on JAK2, 11 nM.
Turning to `CC1(O)CN([C@@H]2CC[C@H](n3nc(Nc4ccc(Cl)cc4)c4c(=O)[nH]ccc43)[C@@H](C#N)C2)C1` [Example 5-21, (1S,2S,5R)-2-(3-((4-chlorophenyl)amino)-4-oxo-4,5-dihydro-1H-pyrazolo[4,3-c]pyridin-1-yl)-5-(3-hydroxy-3-methylazetidin-1-yl)cyclohexanecarbonitrile], the IC50 amounted to 0.35 nM at JAK1 and 6.5 nM at JAK2.
Regarding `CC1(O)CN([C@H]2CC[C@H](n3nc(Nc4ccc(Cl)cc4)c4c(=O)[nH]ccc43)[C@@H](C#N)C2)C1` [Example 5-22, (1S,2S,5S)-2-(3-((4-chlorophenyl)amino)-4-oxo-4,5-dihydro-1H-pyrazolo[4,3-c]pyridin-1-yl)-5-(3-hydroxy-3-methylazetidin-1-yl)cyclohexanecarbonitrile], the IC50 on JAK1 was determined as 0.24 nM; on JAK2, 4 nM.
With `N#C[C@H]1C[C@H](N2CCC2)CC[C@@H]1n1nc(Nc2ccc(OC(F)(F)F)cc2)c2c(=O)[nH]ccc21` [Example 5-23, (1S,2S,5R)-5-(azetidin-1-yl)-2-(4-oxo-3-((4-(trifluoromethoxy)phenyl)amino)-4,5-dihydro-1H-pyrazolo[4,3-c]pyridin-1-yl)cyclohexanecarbonitrile], the IC50 at JAK1 was 0.88 nM; on JAK2, 31 nM.

What is called IC50 is the concentration that gives 50% inhibition.
